# From patent publication US20130324412A1, “N-ALKOXYAMIDES OF 6-(SUBSTITUTED PHENYL)-4-AMINOPICOLINATES AND 2-(SUBSTITUTED PHENYL)-6-AMINO-4-PYRIMIDINECARBOXYLATES AND THEIR USE AS SELECTIVE HERBICIDES FOR CROPS” (DOW AGROSCIENCES LLC, priority 2009, published 2013)
# Tests used:
# Assay type in all cases: in vivo
# Set-up in all cases: unit not given here
# [1] = tested on: lambsquarters (Chenopodium album); assay: Postemergence herbicidal activity in sugar beet, lambsquarters; conditions: sugar beet test, visual rating after 21 d, probit analysis, dose to kill or control 80 percent
# Protocol: (§1) Seeds of sugar beet and the desired weed species were planted in Sun Gro MetroMix® 360 planting mixture, which typically has a pH of 6.0 to 6.8 and an organic matter content of about 30 percent, in plastic pots with a surface area of 95 cm^2. When required to ensure good germination and healthy plants, a fungicide treatment and/or other chemical or physical treatment was applied. The plants were grown for 15-28 d in a greenhouse with an approximate 15-h photoperiod which was maintained at about 23-29° C. during the day and 22-28° C. during the night. Nutrients and water were added on a regular basis and supplemental lighting was provided with overhead metal halide 1000-Watt lamps as necessary. The sugar beet plants were utilized for testing when they reached the third or fourth true leaf stage. The weed species were utilized at the fourth true leaf stage.
# (§2) A weighed amount, determined by the highest rate to be tested, of each test compound was dissolved in 4 mL of a 97:3 v/v mixture of acetone and DMSO to obtain concentrated stock solutions. […] The concentrated stock solutions obtained were diluted with 20 mL of an aqueous mixture containing acetone, water and Agri-Dex crop oil concentrate, in a 16.7:82.1:1.25 v/v ratio to obtain spray solutions containing the highest application rates. Additional application rates were obtained by serial dilution of 12 mL of the high rate solution into a solution containing 2 mL of 97:3 v/v mixture of acetone and DMSO and 10 mL of an aqueous mixture containing acetone, water and Agri-Dex crop oil concentrate, in a 16.7:82.1:1.25 v/v ratio to obtain ½×, ¼×, ⅛× and 1/16× rates of the high rate. Compound requirements are based upon a 12 mL application volume at a rate of 187 L/ha. Formulated compounds were applied to the plant material with an overhead Mandel track sprayer equipped with 8002E nozzles calibrated to deliver 187 L/ha over an application area of 0.503 m^2 at a spray height of 18 inches (43 cm) above the average plant canopy height. Control plants were sprayed in the same manner with the solvent blank.
# (§3) The treated plants and control plants were placed in a greenhouse as described above and watered by sub-irrigation to prevent wash-off of the test compounds. After 21 d, the condition of the test plants as compared with that of the untreated plants was determined visually and scored on a scale of 0 to 100 percent where 0 corresponds to no injury and 100 corresponds to complete kill.
# (§4) By applying the well-accepted probit analysis as described by J. Berkson in Journal of the American Statistical Society 1953, 48, 565, and by D. Finney in “Probit Analysis” Cambridge University Press (1952), the above data can be used to calculate GR20 and GR80 values, which are defined as growth reduction factors that correspond to the effective dose of herbicide required to kill or control 20 percent or 80 percent, respectively, of a target plant.
# [2] = tested on: purple deadnettle (Lamium purpureum); assay: Postemergence herbicidal activity in sugar beet, purple deadnettle; conditions: sugar beet test, visual rating after 21 d, probit analysis, dose to kill or control 80 percent
# Protocol: as §1, §2
# as §3, with “kill. […]” for “kill.”
# [3] = tested on: sugar beet (Beta vulgaris); assay: Postemergence herbicidal activity in sugar beet, crop; conditions: visual rating after 21 d, probit analysis, dose to kill or control 20 percent
# Protocol: as §1, §2, §3, §4
structure (smiles),measurement,setting,value
"CONC(=O)c1nc(-c2ccc(Cl)c(OC)c2F)cc(N)c1Cl [Compound 2, 4-Amino-3-chloro-6-(4-chloro-2-fluoro-3-methoxyphenyl)-N-methoxypicolinamide]",CHEAL GR80,[1],21.5
same,LAMPU GR80,[2],<4.38
same,BEAVA GR20,[3],>35
